Data from patent publication US20240199639A1, “PRETOMANID AMORPHOUS FORM” (THE GLOBAL ALLIANCE FOR TB DRUG DEVELOPMENT, INC., priority 2021, published 2024).
Values after ≈ are worked out from the molar mass of the structure shown. Like-named read-outs stand apart in the source and are kept apart here.

What was measured:
[1] = Equilibrium solubility of PA-824 in FaSSIF containing 2% DMSO; type: physicochemical; settings: thermodynamic from solid, 25° C.
[2] = Supersaturated solubility measurement in FaSSIF with 2% DMSO; type: physicochemical; settings: for solubility kinetic at 16 min: read-out: Measured conc.(μg/mL)
Description: Then 20 μL of each DMSO stock solution was added to FaSSIF at 1:49 to make the final DMSO concentration at 2% v/v. The samples were stirred at room temperature for 16 min, centrifuged and supernatants analyzed by HPLC.

[3] = type: physicochemical
Description: 10 mL of SGF was added into 8 vials containing each ASD prepared by vacuum drying as described above, then the suspensions were shaken using a thermomixer at 37° C. under 100 rpm, 300 μL of suspensions were withdrawn at 1 h and the pH values were recorded. After that, 10 mL of FaSSIF was added into the suspensions containing SGF, 300 μL of suspensions were withdrawn at 1 h and 3 h, the pH values in 3 h were also recorded. The samples of suspensions were centrifuged in 96-well plates at 3000 rpm for 2 min. The supernatants were diluted with the diluent (ACN/water, 50/50) and analyzed by HPLC. […]

[4] = Kinetic solubility of nanospray-dried ASDs in FaSSIF at 37° C.; type: physicochemical; settings: thermodynamic from solid
Description: (§1) 10 mL of FASSIF was added into 8 vials containing each ASD prepared before by nanospray drying, respectively, then the suspensions were shaken using a thermomixer at 37° C. under 100 rpm, 300 μL of suspensions were withdrawn at 15, 30, 45, 60, 90, 120 and 180 mins. The samples of suspensions were centrifuged in 96-well plates at 3000 rpm for 5 min. The supernatants were diluted with the diluent (ACN/water, 50/50) and analyzed by HPLC.

[5] = Kinetic solubility of Soluplus ASDs with different drug loadings in FaSSIF at 37° C.; type: physicochemical; settings: thermodynamic from solid, Table 8, FaSSIF
Description: as §1, with “of FaSSIF” for “of FASSIF”, “into 3” for “into 8”, “ASD (equivalent to 5 mg API)” for “ASD”, “prepared” for “prepared before”, “centrifuged” for “centrifuged in 96-well plates”, “(ACN/water, 75/25)” for “(ACN/water, 50/50)”

[6] = Kinetic solubility of HME ASDs in FaSSIF at 37° C.; type: physicochemical; settings: thermodynamic from solid; for solubility at 15 min: read-out: Solubility (μg/mL) 15 min; for solubility at 30 min: read-out: Solubility (μg/mL) 30 min; for solubility at 60 min: read-out: Solubility (μg/mL) 60 min; for solubility at 90 min: read-out: Solubility (μg/mL) 90 min; for solubility at 120 min: read-out: Solubility (μg/mL) 120 min; for solubility at 180 min: read-out: Solubility (μg/mL) 180 min
Description: (§2) 10 mL of FaSSIF was added into 4 vials containing each ASD (equivalent to 5mg API) prepared by Hot melt extrusion, respectively, then the suspensions were shaken using a thermomixer at 37° C. under 100 rpm, 300 μL of suspensions were withdrawn at 15, 30, 45, 60, 90, 120 and 180 mins. The samples of suspensions were centrifuged at 14000 rpm for 10 min. The supernatants were diluted with the diluent (ACN/water, 50/50) and analyzed by UPLC.
The milled ASD products were sieved with 60 mesh sieve, and kinetic solubility test was performed with sieved ASD products as well (Table 14).

[7] = Kinetic solubility of nano suspension after lyophilization in FaSSIF at 37° C.; type: physicochemical; settings: thermodynamic from solid, Table 20, FaSSIF
Description: as §2, with “into 2” for “into 4”, “containing 2 batches of nano suspension after Lyophilization” for “containing each ASD”, “to 2 mg API),” for “to 5mg API) prepared by Hot melt extrusion, respectively,”, “C. and” for “C. under”

[8] = Induction time of crystallization of PA-824 in presence of HPMCAS; type: physicochemical
[9] = Amorphous solubility of PA-824; type: physicochemical
[10] = system: Gram-positive and Gram-negative bacteria; settings: cited from earlier work
cytochrome P450 = settings: cited from earlier work
[11] = 15 min, read-out: Solubility (μg/mL) 15 min
[12] = 30 min, read-out: Solubility (μg/mL) 30 min
[13] = 45 min, read-out: Solubility (μg/mL) 45 min
[14] = 60 min, read-out: Solubility (μg/mL) 60 min
[15] = 90 min, read-out: Solubility (μg/mL) 90 min
[16] = 180 min, read-out: Solubility (μg/mL) 180 min

## O=[N+]([O-])c1cn2c(n1)OC[C@@H](OCc1ccc(OC(F)(F)F)cc1)C2 [PA-824, (6S)-2-nitro-6-{[4-(trifluoromethoxy)benzyl]oxy}-6,7-dihydro-5H-imidazo[2,1-b][1,3]oxazine]
[1]
  solubility thermodynamic at 18 h: 51.4 µg/mL (≈ 143 µM)
[2]; fassif, kinetic from dmso stock
  solubility at 16 min: 53.3 µg/mL (≈ 148 µM)
[2]; fassif, kinetic from dmso stock, target conc. 205.60 μg/mL
  solubility kinetic at 16 min: 30.8 µg/mL (≈ 85.8 µM)
[2]; fassif, kinetic from dmso stock, target conc. 514.00 μg/mL
  solubility kinetic at 16 min: 29.5 µg/mL (≈ 82.1 µM)
[2]; fassif, kinetic from dmso stock, target conc. 616.80 μg/mL
  solubility kinetic at 16 min: 28.7 µg/mL (≈ 79.9 µM)
[2]; fassif, kinetic from dmso stock, target conc. 771.00 μg/mL
  solubility kinetic at 16 min: 30.3 µg/mL (≈ 84.4 µM)
[2]; target conc. 51.40 μg/mL
  Measured conc.(μg/mL): 53.08 µg/mL
[2]; target conc. 102.80 μg/mL
  Measured conc.(μg/mL): 53.27 µg/mL
[2]; target conc. 411.20 μg/mL
  Measured conc.(μg/mL): 32.98 µg/mL
[2]; target conc. 1028.00 μg/mL
  Measured conc.(μg/mL): 30.32 µg/mL
[3]; 1 h
  FaSSIF Conc. (μg/mL) (1 hr): 23.95 µg/mL
  SGF Conc. (μg/mL) (1 hr): 12.46 µg/mL
[3]; 3 h
  FaSSIF Conc. (μg/mL) (3 hr): 24.89 µg/mL
[4]; [11]
  solubility at 15 min: 22.1 µg/mL (≈ 61.7 µM)
[4]; [12]
  solubility at 30 min: 23.7 µg/mL (≈ 65.9 µM)
[4]; [13]
  solubility at 45 min: 26.1 µg/mL (≈ 72.5 µM)
[4]; [14]
  solubility at 60 min: 26.3 µg/mL (≈ 73.3 µM)
[4]; [15]
  solubility at 90 min: 23.6 µg/mL (≈ 65.8 µM)
[4]; [16]
  solubility at 180 min: 24.4 µg/mL (≈ 68 µM)
[5]; [11]
  solubility at 15 min: 22.1 µg/mL (≈ 61.7 µM)
[5]; [12]
  solubility at 30 min: 23.7 µg/mL (≈ 65.9 µM)
[5]; [13]
  solubility at 45 min: 26.1 µg/mL (≈ 72.5 µM)
[5]; [14]
  solubility at 60 min: 26.3 µg/mL (≈ 73.3 µM)
[5]; [15]
  solubility at 90 min: 23.6 µg/mL (≈ 65.8 µM)
[5]; [16]
  solubility at 180 min: 24.4 µg/mL (≈ 68 µM)
[6]; after sieving (60 mesh)
  solubility at 15 min: 31.7 µg/mL (≈ 88.3 µM)
  solubility at 30 min: 31.2 µg/mL (≈ 86.9 µM)
  solubility at 60 min: 33.5 µg/mL (≈ 93.3 µM)
  solubility at 90 min: 32.6 µg/mL (≈ 90.9 µM)
  solubility at 120 min: 39.6 µg/mL (≈ 110 µM)
  solubility at 180 min: 31.6 µg/mL (≈ 87.8 µM)
[6]; after sieving (60 mesh), 45 min, read-out: Solubility (μg/mL) 45 min
  solubility at 45 min: 32.8 µg/mL (≈ 91.2 µM)
[6]; without sieving
  solubility at 15 min: 37.2 µg/mL (≈ 103 µM)
  solubility at 30 min: 41.3 µg/mL (≈ 115 µM)
  solubility at 60 min: 46.2 µg/mL (≈ 129 µM)
  solubility at 90 min: 41.3 µg/mL (≈ 115 µM)
  solubility at 120 min: 41.4 µg/mL (≈ 115 µM)
  solubility at 180 min: 40.7 µg/mL (≈ 113 µM)
[7]; [11]
  solubility at 15 min: 31.7 µg/mL (≈ 88.3 µM)
[7]; [12]
  solubility at 30 min: 31.2 µg/mL (≈ 86.9 µM)
[7]; [13]
  solubility at 45 min: 32.8 µg/mL (≈ 91.2 µM)
[7]; [14]
  solubility at 60 min: 33.5 µg/mL (≈ 93.3 µM)
[7]; [15]
  solubility at 90 min: 32.6 µg/mL (≈ 90.9 µM)
[7]; 120 min, read-out: Solubility (μg/mL) 120 min
  solubility at 120 min: 39.6 µg/mL (≈ 110 µM)
[7]; [16]
  solubility at 180 min: 31.6 µg/mL (≈ 87.8 µM)
[8]; 160 ug/mL PA-824, FaSSIF V1
  Induction Time: 0.89 ± 0.26 min
[8]; 160 ug/mL PA-824, FaSSIF V1 + HF (1 mg/mL)
  Induction Time: 77.6 ± 13.6 min
[8]; 160 ug/mL PA-824, PBS pH 6.5
  Induction Time: 1.39 ± 0.18 min
[8]; 160 ug/mL PA-824, PBS pH 6.5 + HF (1 mg/mL)
  Induction Time: 43.75 ± 1.34 min
[8]; PA-824 80 μg/mL, PBS pH 6.5, HPMCAS-HF 10 μg/mL
  Induction Time: about 77.5 minutes
[9]; aqueous buffer, in PBS
  solubility: ~160 µg/mL (≈ 445 µM)
[9]; in FaSSIF V1
  solubility: ~300 µg/mL (≈ 835 µM)
[10]
  activity against a broad range of Gram-positive and Gram-negative bacteria: no significant activity
Cytochrome P450
  cytochrome P450 interactions: no significant cytochrome P450 interactions
